Laboratory results as given in patent publication US20250114338A1, “TETRAHYDRO-PYRIDO[3,4-b]INDOLE ESTROGEN RECEPTOR MODULATORS AND USES THEREOF” (Genentech, Inc., priority 2014, published 2025).

test system: ER-alpha MCF7; assay: ER-alpha MCF7 HCS EC50; stated as measured by in vitro cell proliferation assays of Examples 902 and 903; assay type: cell-based; conditions: Homo sapiens, MCF7, MCF7 cells; Table 1
Description: The CellTiter-Glo® Luminescent Cell Viability Assay is a homogeneous method to determine the number of viable cells in culture based on quantitation of the ATP present, which signals the presence of metabolically active cells. The CellTiter-Glo® Assay is designed for use with multiwell plate formats, making it ideal for automated high-throughput screening (HTS), cell proliferation and cytotoxicity assays. The homogeneous assay procedure involves adding a single reagent (CellTiter-Glo® Reagent) directly to cells cultured in serum-supplemented medium. Cell washing, removal of medium or multiple pipetting steps are not required. The Cell Titer-Glo® Luminescent Cell Viability Assay, including reagents and protocol are commercially available (Promega Corp., Madison, WI, Technical Bulletin TB288).
The assay assesses the ability of compounds to enter cells and inhibit cell proliferation. The assay principle is based on the determination of the number of viable cells present by quantitating the ATP present in a homogenous assay where addition of the Cell Titer-Glo® reagent results in cell lysis and generation of a luminescent signal through the luciferase reaction. The luminescent signal is proportional to the amount of ATP present.
Cell Culture Medium: RPMI or DMEM high glucose, 10% Fetal Bovine Serum, 2 mM L-Glutamine, P/S. Incubate O/N (overnight) at 37° C., 5% CO2.
Day 2—Add Drug to Cells, Compound Dilution, DMSO Plates (serial 1:2 for 9 points). Add 20 μl of compound at 10 mM in the 2nd column of 96 well plate. […] Add 147 μl of Media into all wells. Transfer 3 μl of DMSO+ compound from each well in the DMSO Plate to each corresponding well on Media Plate using Rapidplate® (Caliper, a Perkin-Elmer Co.). For 2 drug combination studies, transfer one drug 1.5 μl of DMSO+ compound from each well in the DMSO Plate to each corresponding well on Media Plate using Rapidplate. Then, transfer another drug 1.5 μl to the medium plate.
Drug Addition to Cells, Cell Plate (1:10 dilution): Add 6 μl of media+ compound directly to cells (54 μl of media on the cells already). Incubate 3 days at 37° C., 5% CO2 in an incubator that will not be opened often.
Day 5—Develop Plates, Thaw Cell Titer Glo Buffer at room temperature: Remove Cell Plates from 37° C. and equilibrate to room temperature for about 30 minutes. Add Cell Titer-Glo® Buffer to Cell Titer-Glo® Substrate (bottle to bottle). Add 30 μl Cell Titer-Glo® Reagent (Promega cat. #G7572) to each well of cells. Place on plate shaker for about 30 minutes. Read luminescence on Analyst HT Plate Reader (half second per well).
Cell viability assays and combination assays: Cells were seeded at 1000-2000 cells/well in 384-well plates for 16 h. On day two, nine serial 1:2 compound dilutions were made in DMSO in a 96 well plate. The compounds were further diluted into growth media using a Rapidplate® robot (Zymark Corp., Hopkinton, MA). The diluted compounds were then added to quadruplicate wells in 384-well cell plates and incubated at 37° C. and 5% CO2. After 4 days, relative numbers of viable cells were measured by luminescence using Cell Titer-Glo® (Promega) according to the manufacturer's instructions and read on a Wallac Multilabel Reader® (PerkinElmer, Foster City). EC50 values were calculated using Prism® 4.0 software (GraphPad, San Diego).
5 ul of each individual compound concentration and each control compound was transferred to the cell plate. Fulvestrant was added to control wells at a final concentration of 100 nM). DMSO was added to negative control wells (0.2% v/v).

| EC50 [nM] | SMILES |
| --- | --- |
| 0.898 | C[C@@H]1Cc2c([nH]c3ccccc23)[C@@H](c2ccc(OCCN3CC(CF)C3)nc2)N1CC(C)(C)F [Example 111, (1R,3R)-2-(2-fluoro-2-methylpropyl)-1-(6-(2-(3-(fluoromethyl)azetidin-1-yl)ethoxy)pyridin-3-yl)-3-methyl-2,3,4,9-tetrahydro-1H-pyrido[3,4-b]indole] |
| 0.092 | C[C@@H]1Cc2c([nH]c3ccccc23)[C@@H](c2ncc(OCCN3CC(CF)C3)cc2F)N1CC(C)(C)F [Example 112, (1S,3R)-2-(2-fluoro-2-methylpropyl)-1-(3-fluoro-5-(2-(3-(fluoromethyl)azetidin-1-yl)ethoxy)pyridin-2-yl)-3-methyl-2,3,4,9-tetrahydro-1H-pyrido[3,4-b]indole] |
| 0.715 | C[C@@H]1Cc2c([nH]c3ccccc23)[C@@H](c2c(F)cc(OCCN3CC(CF)C3)cc2F)N1CC1(C)COC1 [Example 114, (1R,3R)-1-(2,6-difluoro-4-(2-(3-(fluoromethyl)azetidin-1-yl)ethoxy)phenyl)-3-methyl-2-((3-methyloxetan-3-yl)methyl)-2,3,4,9-tetrahydro-1H-pyrido[3,4-b]indole] |

same assay, conditions: Homo sapiens, MCF7, MCF7 cells; Table 2

| SMILES | EC50 [nM] |
| --- | --- |
| C[C@@H]1Cc2c([nH]c3ccccc23)[C@@H](c2c(F)cc(OCCN3CC(CF)C3)cc2F)N1C(=O)C1CC(F)C1 (stereo in doubt) [Example 203, [1-[2,6-difluoro-4-[2-[3-(fluoromethyl)azetidin-1-yl]ethoxy]phenyl]-3-methyl-1,3,4,9-tetrahydropyrido[3,4-b]indol-2-yl]-(3-fluorocyclobutyl)methanone] | 4 |
| CC(CN1[C@H](c2c(F)cc(OC3CN(CCCF)C3)cc2F)c2[nH]c3ccccc3c2C[C@H]1C)C(=O)O (stereo in doubt) [Example 350, 3-[1-[2,6-difluoro-4-[1-(3-fluoropropyl)azetidin-3-yl]oxy-phenyl]-3-methyl-1,3,4,9-tetrahydropyrido[3,4-b]indol-2-yl]-2-methyl-propanoic acid] | 14 |
| C[C@@H]1Cc2c([nH]c3ccccc23)[C@@H](c2c(F)cc(OCCN3CC(CF)C3)cc2F)N1CC(C)(C)O [Example 127, 1-[(1R,3R)-1-[2,6-difluoro-4-[2-[3-(fluoromethyl)azetidin-1-yl]ethoxy]phenyl]-3-methyl-1,3,4,9-tetrahydropyrido[3,4-b]indol-2-yl]-2-methyl-propan-2-ol] | 0.641 |
| C[C@@H]1Cc2c([nH]c3ccccc23)[C@@H](c2c(F)cc(OCCN3CC(CF)C3)cc2F)N1C1CCC1 [Example 134, (1R,3R)-2-cyclobutyl-1-[2,6-difluoro-4-[2-[3-(fluoromethyl)azetidin-1-yl]ethoxy]phenyl]-3-methyl-1,3,4,9-tetrahydropyrido[3,4-b]indole] | 0.542 |
| C[C@@H]1Cc2c([nH]c3ccccc23)[C@@H](c2c(F)cc(OCCN3CC(CF)C3)cc2F)N1C(=O)C1CCCCC1 [Example 137, cyclohexyl((1R,3R)-1-(2,6-difluoro-4-(2-(3-(fluoromethyl)azetidin-1-yl)ethoxy)phenyl)-3-methyl-3,4-dihydro-1H-pyrido[3,4-b]indol-2(9H)-yl)methanone] | 28 |
| C[C@@H]1Cc2c([nH]c3ccccc23)[C@@H](c2c(F)cc(OCCN3CC(CF)C3)cc2F)N1C(=O)C1CC1 [Example 139, cyclopropyl((1R,3R)-1-(2,6-difluoro-4-(2-(3-(fluoromethyl)azetidin-1-yl)ethoxy)phenyl)-3-methyl-3,4-dihydro-1H-pyrido[3,4-b]indol-2(9H)-yl)methanone] | 2.48 |

The remaining lines, values ahead:

| EC50 [nM] | SMILES |
| --- | --- |
| 0.146 | CC(C)(F)CN1[C@@H](CO)Cc2c([nH]c3ccccc23)[C@@H]1c1c(F)cc(OCCN2CC(CF)C2)cc1F [Example 131, ((1S,3R)-1-(2,6-difluoro-4-(2-(3-(fluoromethyl)azetidin-1-yl)ethoxy)phenyl)-2-(2-fluoro-2-methylpropyl)-2,3,4,9-tetrahydro-1H-pyrido[3,4-b]indol-3-yl)methanol] |
| 0.31 | C[C@@H]1Cc2c([nH]c3ccccc23)[C@@H](c2c(F)cc(OC3CNC3)cc2F)N1CC(C)(C)F [Example 132, (1R,3R)-1-[4-(azetidin-3-yloxy)-2,6-difluoro-phenyl]-2-(2-fluoro-2-methyl-propyl)-3-methyl-1,3,4,9-tetrahydropyrido[3,4-b]indole] |
| 0.0562 | C[C@@H]1Cc2c([nH]c3ccccc23)[C@@H](c2ccc(OCCN3CC(CF)C3)cc2F)N1CC(C)(C)F [Example 133, (1R,3R)-2-(2-fluoro-2-methylpropyl)-1-(2-fluoro-4-(2-(3-(fluoromethyl)azetidin-1-yl)ethoxy)phenyl)-3-methyl-2,3,4,9-tetrahydro-1H-pyrido[3,4-b]indole] |
| 0.0973 | CC(C)(F)CN1[C@H](CF)Cc2c([nH]c3ccccc23)[C@H]1c1c(F)cc(OCCN2CC(CF)C2)cc1F [Example 135, (1R,3S)-1-[2,6-difluoro-4-[2-[3-(fluoromethyl)azetidin-1-yl]ethoxy]phenyl]-3-(fluoromethyl)-2-(2-fluoro-2-methyl-propyl)-1,3,4,9-tetrahydropyrido[3,4-b]indole] |
| 0.114 | C[C@@H]1Cc2c([nH]c3ccccc23)[C@@H](c2c(F)cc(OCCN3CC(CF)C3)cc2F)N1CC1(F)COC1 [Example 136, (1R,3R)-1-[2,6-difluoro-4-[2-[3-(fluoromethyl)azetidin-1-yl]ethoxy]phenyl]-2-[(3-fluorooxetan-3-yl)methyl]-3-methyl-1,3,4,9-tetrahydropyrido[3,4-b]indole] |
| 0.491 | C[C@@H]1Cc2c([nH]c3ccccc23)[C@@H](c2c(F)cc(OCCN3CC(CF)C3)cc2F)N1C(=O)C(C)(C)C [Example 138, 1-[(1R,3R)-1-[2,6-difluoro-4-[2-[3-(fluoromethyl)azetidin-1-yl]ethoxy]phenyl]-3-methyl-1,3,4,9-tetrahydropyrido[3,4-b]indol-2-yl]-2,2-dimethyl-propan-1-one] |
| 0.13 | CC1CN(CCOc2cc(F)c([C@@H]3c4[nH]c5ccccc5c4C[C@@H](C)N3CC(C)(C)F)c(F)c2)C1 [Example 140, (1R,3R)-1-[2,6-difluoro-4-[2-(3-methylazetidin-1-yl)ethoxy]phenyl]-2-(2-fluoro-2-methyl-propyl)-3-methyl-1,3,4,9-tetrahydropyrido[3,4-b]indole] |
| 0.151 | C[C@@H]1CCN(CCOc2cc(F)c([C@@H]3c4[nH]c5ccccc5c4C[C@@H](C)N3CC(C)(C)F)c(F)c2)C1 [Example 141, (1R,3R)-1-(2,6-difluoro-4-(2-((R)-3-methylpyrrolidin-1-yl)ethoxy)phenyl)-2-(2-fluoro-2-methylpropyl)-3-methyl-2,3,4,9-tetrahydro-1H-pyrido[3,4-b]indole] |
| 0.09 | C[C@@H]1Cc2c([nH]c3ccccc23)[C@@H](c2c(F)cc(OC[C@H](C)N3CCCC3)cc2F)N1CC(C)(C)F [Example 142, (1R,3R)-1-[2,6-difluoro-4-[(2S)-2-pyrrolidin-1-ylpropoxy]phenyl]-2-(2-fluoro-2-methyl-propyl)-3-methyl-1,3,4,9-tetrahydropyrido[3,4-b]indole] |
| 0.078 | C[C@@H]1Cc2c([nH]c3ccccc23)[C@@H](c2c(F)cc(OCCCN3CC(CF)C3)cc2F)N1CC(C)(C)F [Example 143, (1R,3R)-1-[2,6-difluoro-4-[3-[3-(fluoromethyl)azetidin-1-yl]propoxy]phenyl]-2-(2-fluoro-2-methyl-propyl)-3-methyl-1,3,4,9-tetrahydropyrido[3,4-b]indole] |
| 0.144 | C[C@@H]1Cc2c([nH]c3ccccc23)[C@@H](c2c(F)cc(/C=C/CN3CC(CF)C3)cc2F)N1CC(C)(C)F [Example 144, (1R,3R)-1-[2,6-difluoro-4-[(E)-3-[3-(fluoromethyl)azetidin-1-yl]prop-1-enyl]phenyl]-2-(2-fluoro-2-methyl-propyl)-3-methyl-1,3,4,9-tetrahydropyrido[3,4-b]indole] |
